# Reference: ChEMBL document CHEMBL1201862, “PubChem BioAssay data set” (2004)
# Activity calls are given as the source filed them.
# Tests used:
# [1] = LGR2 antagonists, dose response, cell-based, HEK293, CRE-luciferase reporter, cherry pick, set 2 (AID 743343); assay type: functional;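 further: transfected cells were stimulated with diluted bursicon conditioned medium after compound addition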
# A-375 = experiment: A375 melanoma cell viability reduction, dose response, counter-screen for MITF modulator project, cherry-pick samples, set 2 (AID 540335); assay type: functional, cell-based; conditions: Homo sapiens
# [2] = biological target: T1, Rac GTPase-activating protein 1 (Homo sapiens, UniProt Q9H0H5); experiment: MgcRacGAP GTPase-activating activity inhibitors, confirmation, biochemical, ADP Hunter fluorescence, primary and confirmatory (AID 624330); assay type: functional
# T1 sequence (Q9H0H5 whole entry): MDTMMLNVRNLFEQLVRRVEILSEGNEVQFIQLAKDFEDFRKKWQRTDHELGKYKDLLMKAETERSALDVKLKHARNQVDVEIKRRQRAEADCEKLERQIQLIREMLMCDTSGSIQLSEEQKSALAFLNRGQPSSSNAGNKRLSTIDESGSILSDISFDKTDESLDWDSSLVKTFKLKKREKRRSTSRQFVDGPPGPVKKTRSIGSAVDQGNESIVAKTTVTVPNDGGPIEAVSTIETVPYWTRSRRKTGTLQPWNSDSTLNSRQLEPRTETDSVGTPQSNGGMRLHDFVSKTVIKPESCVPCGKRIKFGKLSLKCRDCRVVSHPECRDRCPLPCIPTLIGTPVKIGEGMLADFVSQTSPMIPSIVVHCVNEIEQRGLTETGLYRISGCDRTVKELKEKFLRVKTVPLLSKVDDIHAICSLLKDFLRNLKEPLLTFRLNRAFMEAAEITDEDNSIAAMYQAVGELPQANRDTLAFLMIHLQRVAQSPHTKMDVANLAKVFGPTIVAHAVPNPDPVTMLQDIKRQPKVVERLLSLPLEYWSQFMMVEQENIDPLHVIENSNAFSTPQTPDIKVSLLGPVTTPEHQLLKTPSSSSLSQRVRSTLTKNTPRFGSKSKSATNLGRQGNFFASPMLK
# [3] = THP-1 cell cytotoxicity, dose response, cytotoxicity control for non-replicating M. tuberculosis project (AID 489025); assay type: functional
# [4] = Vero E6 cell cytotoxicity, dose response, cytotoxicity control for non-replicating M. tuberculosis project, secondary assay (AID 492998); assay type: functional, VeroE6; conditions: Vero C1008
# cells = assay type: functional
# [5] = MC4R antagonists, dose response, counter-screen for LGR2 antagonist project, cell-based, plate reader, cherry pick (AID 743444); assay type: functional;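 further: transfected HEK 293 cells stimulated with alpha-MSH peptide; potency of inhibitors of the alpha-MSH evoked signal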
# [6] = biological target: T2, Microphthalmia-associated transcription factor (Homo sapiens, UniProt O75030); experiment: TRPM1 promoter luciferase signal decrease, dose response, MITF inhibitor project, cell-based, SK-MEL-5, cherry-picked, set 3 (AID 493073); assay type: functional
# T2 sequence (O75030 whole entry): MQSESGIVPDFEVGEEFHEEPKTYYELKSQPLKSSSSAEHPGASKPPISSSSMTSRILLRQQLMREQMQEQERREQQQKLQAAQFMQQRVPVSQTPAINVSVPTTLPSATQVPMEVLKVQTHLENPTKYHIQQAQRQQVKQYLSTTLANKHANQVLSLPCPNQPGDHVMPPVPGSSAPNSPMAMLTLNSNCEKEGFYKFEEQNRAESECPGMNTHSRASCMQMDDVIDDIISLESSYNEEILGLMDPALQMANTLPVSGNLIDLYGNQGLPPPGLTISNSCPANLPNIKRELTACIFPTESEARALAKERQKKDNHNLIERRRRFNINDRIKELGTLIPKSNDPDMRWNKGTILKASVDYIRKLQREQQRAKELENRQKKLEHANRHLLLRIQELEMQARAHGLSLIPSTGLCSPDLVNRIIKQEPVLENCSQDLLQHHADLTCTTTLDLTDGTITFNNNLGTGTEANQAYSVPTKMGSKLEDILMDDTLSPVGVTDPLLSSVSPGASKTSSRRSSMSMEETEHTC
# [7] = biological target: T3, Ubiquitin-conjugating enzyme E2 N (Homo sapiens, UniProt P61088); assay type: functional;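 further: Dose-response confirmation in a TR-FRET assay detecting UBC13-driven polyubiquitin chain formation, inhibition measured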
# T3 sequence (P61088 whole entry): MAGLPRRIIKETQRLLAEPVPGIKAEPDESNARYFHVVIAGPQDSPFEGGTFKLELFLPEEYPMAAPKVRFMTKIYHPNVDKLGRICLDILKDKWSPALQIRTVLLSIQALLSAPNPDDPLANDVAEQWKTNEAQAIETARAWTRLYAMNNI
# [8] = HepG2 cell cytotoxicity, dose response, cytotoxicity control for non-replicating M. tuberculosis project (AID 489018); assay type: functional; conditions: Mycobacterium tuberculosis
# [9] = HeLa cell cytotoxicity, dose response, cytotoxicity control for MgcRacGAP inhibitor project (AID 624300); assay type: functional
# [10] = HepG2 cell cytotoxicity, dose response, cytotoxicity control, plate reader, cherry-pick, antagonist series (AID 743416); assay type: functional, cell-based
# [11] = HEK293 cell cytotoxicity, dose response, cytotoxicity control, plate reader, cherry-picked samples (AID 743446); assay type: functional, cell-based
# [12] = A549 cell cytotoxicity, dose response, cytotoxicity control, plate reader, cherry-pick, antagonist series (AID 743412); assay type: functional, cell-based
# [13] = biological target: Sphingosine 1-phosphate receptor 5 (Homo sapiens, UniProt Q9H228); experiment: (§1) Late-stage fluorescence-based dose-response cell-based assay to identify agonists of the Sphingosine 1-Phosphate Receptor 4 (S1P4): Sphingosine 1-Phosphate Receptor 5 (S1P5) counterscreen assay. [Related pubchem assays (depositor defined):AID1509, AID1523, AID1563, AID1686, AID1701, AID1801, AID463107, AID463225, AID504400]; assay type: functional
# [14] = Late-stage assay provider results from the probe development effort to identify agonists of the Sphingosine 1-Phosphate Receptor 4 (S1P4): luminescence-based cell-based dose response assay to determine cytotoxicity of agonist compounds. [Related pubchem assays (depositor defined):AID1509, AID1523, AID1563, AID1686, AID1701, AID1801, AID463107, AID463225, AID504400]; assay type: functional
# [15] = biological target: Sphingosine 1-phosphate receptor 1 (Homo sapiens, UniProt P21453); experiment: as §1, with “1 (S1P1)” for “5 (S1P5)”; assay type: functional
# [16] = biological target: Sphingosine 1-phosphate receptor 4 (Homo sapiens, UniProt O95977); experiment: Late-stage fluorescence dose response cell-based counterscreening assay for agonists of the Sphingosine 1-Phosphate Receptor 4 (S1P4): inhibition by S1P4-selective antagonist. [Related pubchem assays (depositor defined):AID1509, AID1523, AID1563, AID1686, AID1701, AID1801, AID463107, AID463118, AID463119, AID463122, AID463123, AID463129, AID504400]; assay type: functional
# [17] = biological target: Sphingosine 1-phosphate receptor 3 (Homo sapiens, UniProt Q99500); experiment: as §1, with “3 (S1P3)” for “5 (S1P5)”; assay type: functional
# [18] = biological target: Sphingosine 1-phosphate receptor 2 (Homo sapiens, UniProt O95136); experiment: as §1, with “2 (S1P2)” for “5 (S1P5)”; assay type: functional
# Candida albicans = experiment: reversal of fluconazole resistance in C. albicans, dose response, CaCi-2 strain, Alamar Blue, dry powder, set 3 (AID 488907); assay type: functional, organism-based
# Sphingosine 1-phosphate receptor 1, sequence (P21453 whole entry): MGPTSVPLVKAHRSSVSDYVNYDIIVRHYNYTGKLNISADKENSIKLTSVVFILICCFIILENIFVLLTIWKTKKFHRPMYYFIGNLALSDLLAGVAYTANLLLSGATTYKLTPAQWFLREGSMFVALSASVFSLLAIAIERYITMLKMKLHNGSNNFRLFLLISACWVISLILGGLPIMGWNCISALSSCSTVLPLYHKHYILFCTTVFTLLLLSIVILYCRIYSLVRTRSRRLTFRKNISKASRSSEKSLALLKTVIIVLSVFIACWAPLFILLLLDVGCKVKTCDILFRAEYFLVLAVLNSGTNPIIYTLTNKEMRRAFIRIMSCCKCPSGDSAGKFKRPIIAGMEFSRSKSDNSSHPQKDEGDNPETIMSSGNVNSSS
# Sphingosine 1-phosphate receptor 5, sequence (Q9H228 whole entry): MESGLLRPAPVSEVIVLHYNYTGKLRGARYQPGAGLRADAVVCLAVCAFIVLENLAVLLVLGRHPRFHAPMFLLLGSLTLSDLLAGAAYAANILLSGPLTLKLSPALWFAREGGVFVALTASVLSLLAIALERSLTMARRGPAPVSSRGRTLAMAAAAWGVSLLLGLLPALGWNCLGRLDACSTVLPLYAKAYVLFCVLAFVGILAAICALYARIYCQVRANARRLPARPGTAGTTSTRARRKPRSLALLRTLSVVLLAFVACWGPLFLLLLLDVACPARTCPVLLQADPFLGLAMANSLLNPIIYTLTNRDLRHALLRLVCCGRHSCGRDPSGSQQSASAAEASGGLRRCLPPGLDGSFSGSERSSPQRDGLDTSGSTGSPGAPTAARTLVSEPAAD
# Sphingosine 1-phosphate receptor 2, sequence (O95136 whole entry): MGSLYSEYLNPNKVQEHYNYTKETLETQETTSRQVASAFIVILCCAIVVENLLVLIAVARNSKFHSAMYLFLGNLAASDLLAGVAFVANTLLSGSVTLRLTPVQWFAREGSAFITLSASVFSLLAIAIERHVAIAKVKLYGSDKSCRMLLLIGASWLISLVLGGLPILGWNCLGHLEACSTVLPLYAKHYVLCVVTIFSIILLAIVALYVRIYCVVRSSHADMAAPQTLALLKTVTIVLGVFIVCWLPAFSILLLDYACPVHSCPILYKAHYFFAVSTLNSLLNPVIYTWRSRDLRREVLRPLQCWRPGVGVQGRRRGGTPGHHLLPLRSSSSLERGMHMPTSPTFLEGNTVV
# Sphingosine 1-phosphate receptor 4, sequence (O95977 whole entry): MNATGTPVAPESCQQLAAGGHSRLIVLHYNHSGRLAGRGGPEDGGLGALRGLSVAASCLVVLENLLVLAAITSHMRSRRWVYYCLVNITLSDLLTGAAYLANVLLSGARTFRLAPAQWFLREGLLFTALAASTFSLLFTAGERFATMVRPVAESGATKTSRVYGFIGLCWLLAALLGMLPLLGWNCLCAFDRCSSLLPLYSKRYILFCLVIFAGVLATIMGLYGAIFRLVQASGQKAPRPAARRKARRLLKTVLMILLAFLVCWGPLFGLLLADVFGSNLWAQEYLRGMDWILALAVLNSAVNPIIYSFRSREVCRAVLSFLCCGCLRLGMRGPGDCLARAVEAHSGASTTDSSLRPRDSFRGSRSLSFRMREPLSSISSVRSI
# Sphingosine 1-phosphate receptor 3, sequence (Q99500 whole entry): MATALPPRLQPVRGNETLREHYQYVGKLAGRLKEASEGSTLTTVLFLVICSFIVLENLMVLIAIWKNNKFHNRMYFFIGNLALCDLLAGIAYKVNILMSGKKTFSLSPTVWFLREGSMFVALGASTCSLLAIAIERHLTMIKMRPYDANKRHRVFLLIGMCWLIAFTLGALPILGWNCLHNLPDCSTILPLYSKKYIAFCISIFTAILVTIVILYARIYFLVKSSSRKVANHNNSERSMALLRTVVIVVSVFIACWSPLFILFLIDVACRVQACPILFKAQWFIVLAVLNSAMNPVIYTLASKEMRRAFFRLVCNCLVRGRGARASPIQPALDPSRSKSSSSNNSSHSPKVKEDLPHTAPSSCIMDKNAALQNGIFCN
compound,measurement,setting,value
CC(C)(c1ccccc1)c1ccc(OCC(O)CNC2CCN(Cc3ccccc3)CC2)cc1 (stereo unspecified),AC50,[1],10.5 µM (active)
same,AC50,A-375,18.1 µM (active)
same,IC50,[2],50.6 µM (active)
same,CC50,[3],6.44 µM (active)
same,CC50,[4],5.72 µM (active)
same,IC50,cells,5.15 µM (active)
same,AC50,[5],6.77 µM (active)
same,AC50,[6],7.94 µM (active)
same,IC50,[7],> 20 µM (inactive)
same,CC50,[8],6.65 µM (active)
same,CC50,[9],17.6 µM (active)
same,AC50,[10],4.23 µM (active)
same,AC50,[11],8.12 µM (active)
same,AC50,[12],6.42 µM (active)
Clc1ccc(OCCOc2ccc(Br)nc2Br)c(Cl)c1,EC50,[13],> 50 µM (inactive)
same,CC50,[14],> 20 µM (inactive)
same,EC50,[15],> 50 µM (inactive)
same,IC50,[16],0.83 µM (active)
same,EC50,[17],> 50 µM (inactive)
same,EC50,[18],> 50 µM (inactive)
N#Cc1cccnc1N1CCN(C(=O)c2ccc(Cl)cc2)CC1,AC50,Candida albicans,0.611 µM (active)
